Earlier results on 4 compounds are cited in patent US4533546A, “Antiinflammatory analgesic gelled ointments” (Lederle (Japan), Ltd., priority 1983, dated 1985).

One data set concerns digestive organs. To be noted: oral, background statement in words.
The conditions of data set [1]: in water and various pharmaceutically acceptable solvents; in words.

For `CC(C)Cc1ccc(C(C)C(=O)O)cc1` (centres unmarked) [ibuprofen], the side-effects result in the data set with digestive organs was “side-effects on the digestive organs”.
With `CC(C)Cc1ccc(CC(=O)O)cc1` [ibufenac], the side-effects result in the data set on digestive organs is listed as “side-effects on the digestive organs”.
On to `O=C(O)Cc1ccc(-c2ccccc2)cc1` [4-biphenylylacetic acid], for which the side-effects entry in the data set on digestive organs is recorded as “side-effects on the digestive organs”. Besides, the solubility result in data set [1] was “insoluble or only sparingly soluble in water and various pharmaceutically acceptable solvents”.
As to `COc1ccc2c(c1)c(CC(=O)O)c(C)n2C(=O)c1ccc(Cl)cc1` [indomethacin], the side-effects result with digestive organs is on record as “side-effects on the digestive organs”.
